Measured values as given in patent US9693971B2, “Compositions for alleviating gastrointestinal tract disorders or associated systemic disorders in ruminants and camelids” (FREIE UNIVERSITÄT BERLIN, priority 2012, dated 2017).
Entries after “also recorded” stand apart in the source; their conditions may differ. Like-named read-outs stand apart in the source and are kept apart here.

Columns and labels:
TRPA1 = TRPA1 (Homo sapiens, UniProt O75762); settings: cited from earlier work
TRPV3 = target: T1, TRPV3 (Homo sapiens, UniProt Q8NET8); settings: cited from earlier work
T1 sequence (Q8NET8 1-790): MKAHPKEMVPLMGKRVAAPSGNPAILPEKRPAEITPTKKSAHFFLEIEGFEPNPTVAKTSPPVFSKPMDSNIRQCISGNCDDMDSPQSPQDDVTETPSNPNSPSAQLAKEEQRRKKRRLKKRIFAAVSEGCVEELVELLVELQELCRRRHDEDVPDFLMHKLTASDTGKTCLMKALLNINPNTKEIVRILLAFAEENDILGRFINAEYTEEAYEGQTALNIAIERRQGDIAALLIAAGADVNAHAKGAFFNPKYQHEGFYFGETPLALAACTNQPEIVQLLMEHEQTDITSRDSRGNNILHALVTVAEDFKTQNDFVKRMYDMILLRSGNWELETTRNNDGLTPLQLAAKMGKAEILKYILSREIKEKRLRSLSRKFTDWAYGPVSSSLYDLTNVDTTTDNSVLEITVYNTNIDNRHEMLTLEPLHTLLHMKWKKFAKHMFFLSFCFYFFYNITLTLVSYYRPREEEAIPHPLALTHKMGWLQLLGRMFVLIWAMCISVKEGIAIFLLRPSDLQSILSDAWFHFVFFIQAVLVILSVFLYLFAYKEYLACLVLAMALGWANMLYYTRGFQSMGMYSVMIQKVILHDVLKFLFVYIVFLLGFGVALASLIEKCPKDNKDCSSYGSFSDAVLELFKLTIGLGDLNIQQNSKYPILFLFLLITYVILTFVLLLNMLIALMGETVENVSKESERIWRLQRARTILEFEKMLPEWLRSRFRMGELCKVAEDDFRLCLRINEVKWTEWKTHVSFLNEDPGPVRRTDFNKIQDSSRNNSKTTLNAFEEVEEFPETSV

TRPV1 = TRPV1 (Homo sapiens, UniProt Q8NER1); settings: cited from earlier work
TRPM8 = TRPM8 (Homo sapiens, UniProt Q7Z2W7); settings: cited from earlier work
[1] = test system: rumen epithelium from cattle; experiment: Ussing chamber: ammonium-induced transepithelial short-circuit current (Isc) across isolated rumen epithelium; assay type: cell-based; settings: for influence on ammonium-induced conductivity / transport across rumen epithelium (profile in words): no concentration stated
Text: The experiments on the intact epithelium take place as already specified (Abdoun, Stumpff et al. 2005; Abdoun, Stumpff et al. 2010). The measuring techniques used are a combination of the Ussing chamber technique developed by Ussing (1949) and the microelectrode technique.
When examining epithelial transport processes with the Ussing chamber, the epithelium is installed in a special chamber, which makes it possible to rinse the two sides of the epithelium (apical: food side; basolateral: blood side) separately of each other with buffer solutions of various composition, wherein the electrophysiological parameters (current and voltage) across the epithelium are traced. Hereby, it is made possible to differentiate between the transport of an uncharged substance (e.g. ammonia, NH3) and the transport of a charged substance (e.g. ammonium, NH4^+), as the former takes place without a change in current and voltage, whereas the latter is coupled with the transfer of a charge and thus changes the transepithelial electrical parameters.
With the help of a special modification, the reaction of individual epithelia to solution changes, taking place very rapidly and smoothly, is also examined over time. Hereby, for example, the reproducibility of a pharmacological intervention on the same piece of epithelium can very well be examined. This modification of the classic Ussing chamber technique is particularly, albeit not exclusively, used for the comparative “screening” of the various substances which are subject of an aspect of the present invention.
The epithelium is horizontally clamped into a modified Ussing chamber, wherein the mucosal side faces upwards. The chamber made of plexi-glass has a cross-section surface of 0.79 cm^2, which is corrected to 1 cm^2. As a protection against damages on the edges of the epithelium, “edge damage”, a silicone ring is in each case placed between chamber and epithelium. The two resulting chambers (mucosal and serosal) are each supplied by their own perfusion system (4-channel-stand-pump, Ismatec SA). With three-way valves, an independent solution change between altogether eight solutions is possible in the two chambers. During storage, the solutions are gassed in their containers with 100% O2. To warm the solutions up to 37° C., the thin perfusion tubes run through a heat exchanger pump. The suction device (Masterflex R/S, Cole Parmer Instrument Company) present in both chambers guarantees a rapid and safe change of solution. In order to ensure that there are no solution change artefacts when adding agonists and antagonists, the substances are pipetted into the respective solution, wherein the gassing ensures a rapid mixing. In this way, pressure fluctuations or an interruption of the flow through the chamber can be safely precluded.
As in the conventional Ussing chamber technique, there are in each case two electrodes near the tissue and two electrodes distant from the tissue for measuring the transepithelial potential difference and the transepithelial current (Isc). The connections between the Ag/AgCl electrodes, which are filled with 3 M KCl, are established via agar bridges. Just as in Strecker (Strecker 2011), the measuring chamber is connected to a “voltage clamp” installation (Ussing chamber unit) in assembly with a microelectrode amplifier (both Biomedical Instruments Co., Germering). A micromanipulator (MF 500) installed above the measuring chamber offers the possibility to move the microelectrode in fine μm steps. Additionally, a microscope as well as a cold-light source are located above the apparatus.
Menthol (Sigma-Aldrich) was dissolved at a concentration of 1 mol·l^−1 in ethanol and pipetted into the used test solution containing ammonium. For an end concentration of 1 mmol·l^−1, 20 μl of this stock solution was added to 20 ml test solution; for 200 μmol·l^−1 correspondingly less. In control experiments, corresponding amounts of pure ethanol were added to the test solution.

TRPV1, sequence (Q8NER1 whole entry, species assumed): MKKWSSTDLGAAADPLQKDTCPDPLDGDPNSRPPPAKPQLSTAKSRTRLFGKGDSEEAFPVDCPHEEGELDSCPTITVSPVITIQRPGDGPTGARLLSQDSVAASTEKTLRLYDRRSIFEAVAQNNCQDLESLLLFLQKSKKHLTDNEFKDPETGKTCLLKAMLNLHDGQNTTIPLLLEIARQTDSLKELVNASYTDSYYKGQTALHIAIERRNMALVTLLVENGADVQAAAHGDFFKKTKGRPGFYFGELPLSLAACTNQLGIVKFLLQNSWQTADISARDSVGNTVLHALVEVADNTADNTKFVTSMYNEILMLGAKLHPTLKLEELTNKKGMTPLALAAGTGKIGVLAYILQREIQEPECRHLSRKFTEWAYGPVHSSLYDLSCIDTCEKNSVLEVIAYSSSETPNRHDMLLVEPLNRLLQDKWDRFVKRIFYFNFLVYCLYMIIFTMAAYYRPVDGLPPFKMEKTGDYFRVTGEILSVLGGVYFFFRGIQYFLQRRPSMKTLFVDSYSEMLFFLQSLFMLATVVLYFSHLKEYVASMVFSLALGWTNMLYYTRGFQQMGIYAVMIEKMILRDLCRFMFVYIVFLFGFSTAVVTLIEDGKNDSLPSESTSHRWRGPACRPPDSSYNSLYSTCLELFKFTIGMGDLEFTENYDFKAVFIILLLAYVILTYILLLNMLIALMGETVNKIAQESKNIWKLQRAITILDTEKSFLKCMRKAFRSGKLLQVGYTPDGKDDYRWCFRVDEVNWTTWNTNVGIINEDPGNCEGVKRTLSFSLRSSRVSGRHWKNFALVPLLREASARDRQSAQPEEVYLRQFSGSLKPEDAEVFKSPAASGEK
TRPM8, sequence (Q7Z2W7 whole entry, species assumed): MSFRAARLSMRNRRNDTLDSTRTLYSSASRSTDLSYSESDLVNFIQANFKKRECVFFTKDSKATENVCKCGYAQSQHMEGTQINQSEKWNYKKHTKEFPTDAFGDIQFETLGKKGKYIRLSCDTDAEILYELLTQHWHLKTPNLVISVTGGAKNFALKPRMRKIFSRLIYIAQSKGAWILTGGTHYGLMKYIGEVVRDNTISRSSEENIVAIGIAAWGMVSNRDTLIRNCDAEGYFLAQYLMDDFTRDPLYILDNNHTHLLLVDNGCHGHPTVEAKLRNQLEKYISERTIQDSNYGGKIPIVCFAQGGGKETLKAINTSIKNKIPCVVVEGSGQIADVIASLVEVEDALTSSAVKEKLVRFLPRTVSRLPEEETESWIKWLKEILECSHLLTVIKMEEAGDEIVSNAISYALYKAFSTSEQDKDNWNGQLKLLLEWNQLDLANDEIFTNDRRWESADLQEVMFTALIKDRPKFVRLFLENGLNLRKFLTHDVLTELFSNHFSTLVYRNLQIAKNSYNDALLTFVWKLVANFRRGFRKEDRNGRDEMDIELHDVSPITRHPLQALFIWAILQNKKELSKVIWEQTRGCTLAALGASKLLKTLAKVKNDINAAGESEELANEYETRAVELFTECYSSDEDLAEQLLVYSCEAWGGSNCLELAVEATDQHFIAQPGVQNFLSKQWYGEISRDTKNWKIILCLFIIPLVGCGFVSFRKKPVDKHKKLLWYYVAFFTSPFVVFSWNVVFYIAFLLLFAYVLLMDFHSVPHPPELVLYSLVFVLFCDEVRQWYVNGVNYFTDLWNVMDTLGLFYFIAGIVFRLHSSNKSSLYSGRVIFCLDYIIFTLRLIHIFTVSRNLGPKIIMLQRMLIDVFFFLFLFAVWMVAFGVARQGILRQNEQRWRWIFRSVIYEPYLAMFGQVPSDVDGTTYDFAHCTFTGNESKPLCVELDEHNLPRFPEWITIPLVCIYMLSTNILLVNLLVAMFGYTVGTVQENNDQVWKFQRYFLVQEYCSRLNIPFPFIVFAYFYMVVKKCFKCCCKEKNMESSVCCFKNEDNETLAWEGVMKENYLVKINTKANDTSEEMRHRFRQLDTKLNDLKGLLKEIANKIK
TRPA1, sequence (O75762 whole entry, species assumed): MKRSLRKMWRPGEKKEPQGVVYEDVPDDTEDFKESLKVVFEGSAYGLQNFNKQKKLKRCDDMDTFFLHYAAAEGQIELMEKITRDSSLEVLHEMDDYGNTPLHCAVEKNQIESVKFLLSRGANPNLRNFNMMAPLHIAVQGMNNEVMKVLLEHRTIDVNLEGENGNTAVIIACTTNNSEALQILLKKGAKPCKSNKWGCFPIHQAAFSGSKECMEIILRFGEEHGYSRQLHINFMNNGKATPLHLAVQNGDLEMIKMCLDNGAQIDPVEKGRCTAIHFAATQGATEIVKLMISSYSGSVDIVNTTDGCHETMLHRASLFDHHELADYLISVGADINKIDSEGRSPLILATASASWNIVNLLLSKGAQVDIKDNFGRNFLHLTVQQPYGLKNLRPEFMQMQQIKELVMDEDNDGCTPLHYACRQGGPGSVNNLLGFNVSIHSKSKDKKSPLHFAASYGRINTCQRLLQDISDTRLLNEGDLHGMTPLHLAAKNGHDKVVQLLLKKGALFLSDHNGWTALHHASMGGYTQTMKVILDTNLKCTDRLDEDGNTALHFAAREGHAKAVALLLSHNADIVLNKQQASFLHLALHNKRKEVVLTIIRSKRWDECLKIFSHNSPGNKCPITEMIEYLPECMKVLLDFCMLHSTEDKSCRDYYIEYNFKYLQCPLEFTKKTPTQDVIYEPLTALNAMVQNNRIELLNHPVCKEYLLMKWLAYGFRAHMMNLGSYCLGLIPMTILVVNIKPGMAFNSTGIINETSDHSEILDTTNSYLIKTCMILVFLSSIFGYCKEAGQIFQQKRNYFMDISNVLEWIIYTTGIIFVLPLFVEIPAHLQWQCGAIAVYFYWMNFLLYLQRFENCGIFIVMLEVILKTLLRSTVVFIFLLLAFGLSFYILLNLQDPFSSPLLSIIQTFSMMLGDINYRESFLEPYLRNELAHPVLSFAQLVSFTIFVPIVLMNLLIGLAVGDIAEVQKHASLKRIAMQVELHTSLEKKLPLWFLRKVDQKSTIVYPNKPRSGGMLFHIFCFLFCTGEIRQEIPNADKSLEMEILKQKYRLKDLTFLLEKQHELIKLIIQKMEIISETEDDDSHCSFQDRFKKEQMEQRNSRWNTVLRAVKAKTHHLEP

Row | Compound | Effect on TRPA1 (TRPA1) | Effect on TRPV1 (TRPV1) | Effect on TRPM8 (TRPM8) | also measured
1 | C=CCS[S+]([O-])CC=C (stereo not drawn) [Allicin, allicin] | Agonist |  |  | 
2 | C=CCN=C=S [Allyl isothiocyanate, allyl isothiocyanate] | Agonist |  |  | 
3 | S=C=NCc1ccccc1 [Benzyl isothiocyanate, benzyl isothiocyanate] | Agonist |  |  | 
4 | CC12CCC(CC1=O)C2(C)C (stereo not drawn) [Camphor, camphor] | Antagonist | Agonist |  | Effect on TRPV3 (TRPV3): nonspecific
5 | C=C(C)[C@@H]1CCC(C)=C[C@H]1c1c(O)cc(CCCCC)cc1O [Cannabidiol, cannabidiol] |  | Agonist |  | 
6 | Oc1cc2c(cc1O)CN(C(=S)NCCc1ccc(Cl)cc1)CCC2 [Capsazepine, capsazepine] |  | Antagonist |  | 
7 | Cc1ccc(C(C)C)cc1O [Carvacrol, carvacrol] | Agonist |  |  | Effect on TRPV3 (TRPV3): Agonist; Effect on TRPA1 (TRPA1; listed as carvacrol): potent TRPA1 agonists
8 | CC1CCC(C(C)(C)O)C(O)C1 (stereo not drawn) [Cis- and trans-p-menthane-3,8-diol, p-menthane-3,8-diol] |  |  | Agonist | 
9 | CCO [Ethanol] |  |  | Antagonist | 
10 | CC12CCC(CC1)C(C)(C)O2 [Eucalyptol, eucalyptol] |  |  | Agonist | Effect on TRPM8 (TRPM8; listed as eucalyptol): potent TRPM8 agonist
11 | C=CCc1ccc(O)c(OC)c1 [Eugenol, eugenol] | Agonist | Agonist | Agonist | Effect on TRPV3 (TRPV3): nonspecific; Effect on TRPA1 (TRPA1; listed as eugenol): potent TRPA1 agonists
12 | CC(C)=CCC/C(C)=C/CO [Geraniol, geraniol] |  |  | Agonist | Effect on TRPM8 (TRPM8; listed as geraniol): potent TRPM8 agonist
13 | CC(CC=O)CCCC(C)(C)O (stereo not drawn) [Hydroxyl-citronellal, hydroxyl-citronellal] |  |  | Agonist | 
14 | O=C1NC(c2cccc([N+](=O)[O-])c2)=CCN1c1ccccc1O [Icilin, icilin] |  |  | Agonist | 
15 | CC(C)N=C=S [Isopropyl isothiocyanate, isopropyl isothiocyanate] | Agonist |  |  | 
16 | C=C(C)[C@@H]1CC[C@@H](C)C[C@H]1O [Isopulegol, isopulegol] |  |  | Agonist | 
17 | CC1(C)C[C@H]2C=C(C=O)[C@]3(C=O)C[C@]3(C)[C@H]2C1 [Isovelleral, isovelleral] |  | Agonist |  | 

Row | Compound | Effect on TRPA1 (TRPA1) | Effect on TRPV1 (TRPV1) | Effect on TRPM8 (TRPM8) | also measured
18 | C=C(C)[C@@H]1CC=C(C)C(=O)C1 [L-carvone, 1-carvone] |  |  | Agonist | 
19 | C=CC(C)(O)CCC=C(C)C (stereo not drawn) [Linalool, linalool] |  |  | Agonist | 
20 | CC(C)[C@@H]1CC[C@@H](C)CC1=O [Menthone, menthone] |  |  | Agonist | Effect on TRPM8 (TRPM8; listed as menthone): potent TRPM8 agonist
21 | CC1CCC(C(C)C)C(OC(=O)C(C)O)C1 (stereo not drawn) [Menthyl lactate, menthyl lactate] |  |  | Agonist | 
22 | CN=C=S [Methyl isothiocyanate, methyl isothiocyanate] | Agonist |  |  | 
23 | N [NH4^+, ammonium] |  |  |  | transepithelial current, MV ([1]; 40 mM NH4^+ replacing NMDG+, n=37, NaCl before −2.43, after washout −2.68): −25.73 μA · cm^−2; transepithelial current, Median ([1]; 40 mM NH4^+ replacing NMDG+, n=37, NaCl median −3.60): −22.32 μA · cm^−2
24 | CCCCCCCC/C=C\CCCCCCCC(=O)NCc1ccc(O)c(OC)c1 [Olvanil, olvanil] |  | Agonist |  | 
25 | S=C=NCCc1ccccc1 [Phenylethyl isothiocyanate, phenylethyl isothiocyanate] | Agonist |  |  | 
26 | CC1(C)CCC[C@]2(C)[C@@H](C=O)C(C=O)=CC[C@@H]12 [Polygodial, polygodial] |  | Agonist |  | 
27 | C=C(C)[C@]12C[C@@H](C)[C@@]34O[C@](Cc5ccccc5)(O[C@@H]1[C@@H]3C=C(COC(=O)Cc1ccc(O)c(OC)c1)C[C@]1(O)C(=O)C(C)=C[C@@H]41)O2 [Resiniferatoxin, resiniferatoxin] |  | Agonist |  | 
28 | C/C=C(/C)C(=O)O[C@H]1C(C)=C2[C@H]([C@@H]1OC(=O)CCCCCCC)[C@@](C)(OC(C)=O)C[C@H](OC(=O)CCC)[C@@]1(O)[C@H]2OC(=O)[C@@]1(C)O [Thapsigargin, thapsigargin] |  | Antagonist |  | 
29 | COc1cc(CCC(C)=O)ccc1O [Vanillylacetone, vanillylacetone] |  | Agonist |  | 
30 | COc1cc(CNC(=O)CCCC/C=C/C(C)C)ccc1O [capsaicin] |  | Agonist |  | influence on ammonium-induced conductivity / transport across rumen epithelium (profile in words) [1]: significantly influenced
31 | O=CC=Cc1ccccc1 [cinnamaldehyde] | potent TRPA1 agonists; also recorded: Agonist |  | Antagonist | transepithelial current, MV ([1]; cinnamaldehyde (concentration not given) in 40 mM NH4^+, n=7, before −31.53, p = 0.313): −28.39 μA · cm^−2; transepithelial current, Median ([1]; cinnamaldehyde in 40 mM NH4^+, n=7, before −26.52): −24.03 μA · cm^−2; influence on ammonium-induced conductivity / transport across rumen epithelium (profile in words) [1]: inhibiting profile
32 | COC(=O)c1ccccc1O [methyl salicylate] | potent TRPA1 agonists |  |  | Effect on TRPA1 (TRPA1; listed as Methyl salicilate): Agonist; influence on ammonium-induced conductivity / transport across rumen epithelium (profile in words) [1]: inhibiting profile; transepithelial current after addition (maximum reduction) ([1]; reduced from −25.44±1.8, n=4, not (yet) significant): −21.06±2.97 μA·cm^−2
33 | COc1ccc(CCN(C)CCCC(C#N)(c2ccc(OC)c(OC)c2)C(C)C)cc1OC (stereo not drawn) [verapamil] |  |  |  | change of transepithelial current ([1]; 1 mmol·l^−1 added to solution containing ammonium): the current drops
34 | evodiamine |  | Agonist |  | 
